The target of experiment [1] is T1, PAK4 kinase activity in whole cells (TR-293-KDG, modified HEK 293) (Homo sapiens, UniProt O96013).
T1 construct: engineered to overexpress both GEF-H1b and the kinase domain (KD) of PAK4; expressed in transfected cells; host or cells: TR-293-KDG (modified HEK 293, Trex system, Invitrogen)
Description: PAK4 cellular assay: sandwich ELISA of PAK4-dependent phosphorylation of GEF-H1b in TR-293-KDG cells. It is filed as cell-based. The conditions noted are these: 3-hour exposure.
Description: A sandwich ELISA method was used to measure the PAK4 kinase activity in whole cells. The level of PAK4-dependent phosphorylation of GEF-H1b can be determined by monitoring the binding of a phosphospecific antibody to GEF-H1b. […] The KD of PAK4 is inducible in this cell line by tetracycline (Trex system, Invitrogen). […] To establish a phosphorylation event on GEF-HL, cells are induced with doxycycline to express the PAK4 KD. […] Candidate substance effect is measured as the ability to block this phosphorylation event.
ELISA plate was prepared by pre-coating the plates with a capture antibody (α-HA-tag mouse monoclonal antibody), blocked with BSA, and washed in 0.1% tween 20 in tris-buffered saline (TBST). […] Cells were then lysed with a modified RIPA buffer supplemented with protease inhibitors. […] Between all subsequent steps plates were washed 4 times with TBST. Detection antibody (recognizing the phospho-specific eptitope on GEF-H1b) was added for 1 hour, followed by addition of an enzyme linked goat α-rabbit secondary antibody for 45 minutes. […] EC50 values were calculated by sigmoid curve fitting using a four-parameter analysis.

In experiment [2] the target is T2, PAK4 Kinase domain (PAK4 KD) (Homo sapiens, UniProt O96013).
T2 construct: Cloning, expression, and purification of recombinant PAK4 Kinase domain (PAK4 KD); His tag (pET28a(+)/pET24a(+), Ni-NTA purification) (N, cleaved yes); GST (pGST4.5, glutathione column) (N, cleaved yes); made in house; host or cells: E. coli BL21(DE3)
Description: PAK4 kinase domain enzymatic assay (PK/LDH-coupled, Ki). It is filed as biochemical. As to conditions: for Ki: PAK4 Kinase Domain.

In patent US7884117B2, “Carbonylamino pyrrolopyrazoles, potent kinase inhibitors” (Pfizer Inc., priority 2005, dated 2011) one finds EC50, Ki and inhibition data, which are given here for 27 molecules.

Molecules are shown by their SMILES.

T2 sequence (O96013 321-572 limits assumed): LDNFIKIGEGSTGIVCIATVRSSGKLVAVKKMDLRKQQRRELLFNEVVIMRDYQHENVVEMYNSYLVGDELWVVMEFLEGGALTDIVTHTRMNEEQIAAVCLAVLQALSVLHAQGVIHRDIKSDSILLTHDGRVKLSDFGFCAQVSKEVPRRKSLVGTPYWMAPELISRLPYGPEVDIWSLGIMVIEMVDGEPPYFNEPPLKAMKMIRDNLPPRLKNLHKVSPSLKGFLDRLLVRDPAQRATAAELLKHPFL
T1 sequence (O96013 321-572 limits assumed): as above

The molecule `COC[C@@H](CN(C)C)OC(=O)N1Cc2c(NC(=O)c3ccc(F)cc3)n[nH]c2C1(C)C` [Example 77, (1R)-2-(dimethylamino)-1-(methoxymethyl)ethyl 3-[(4-fluorobenzoyl)amino]-6,6-dimethyl-4,6-dihydropyrrolo[3,4-c]pyrazole-5(1H)-carboxylate] yielded an EC50 in experiment [1] of 0.167 µM. This molecule also came in with a Ki in experiment [2] of 0.345 µM.

`CN(C)C[C@@H](OC(=O)N1Cc2c(NC(=O)c3ccccn3)n[nH]c2C1(C)C)c1ccccc1` [Example 6, (1S)-2-(dimethylamino)-1-phenylethyl 6,6-dimethyl-3-[(pyridin-2-ylcarbonyl)amino]-4,6-dihydropyrrolo[3,4-c]pyrazole-5(1H)-carboxylate] showed an EC50 in experiment [1] of 0.0279 µM. In experiment [2], this molecule came in with a Ki of 0.0309 µM.

For the molecule `CN(C)C[C@@H](OC(=O)N1Cc2c(NC(=O)c3ccc(F)cc3)n[nH]c2C1(C)C)C1CCCCC1` [Example 75, (1S)-1-cyclohexyl-2-(dimethylamino)ethyl 3-[(4-fluorobenzoyl)amino]-6,6-dimethyl-4,6-dihydropyrrolo[3,4-c]pyrazole-5(1H)-carboxylate], it took 0.115 µM to reach a half-maximal effect in experiment [1] (EC50). The molecule further returned a Ki in experiment [2] of 0.0731 µM.

In turn, `CNC[C@@H](OC(=O)N1Cc2c(NC(=O)c3ccc(F)cc3)n[nH]c2C1(C)C)c1ccccc1` [Example 121, (S)-2-(methylamino)-1-phenylethyl 3-(4-fluorobenzamido)-6,6-dimethylpyrrolo[3,4-c]pyrazole-5(1H,4H,6H)-carboxylate] gave an EC50 in experiment [1] of 0.124 µM. Besides, in experiment [2], the Ki stood at 0.0162 µM.

`CN(C)C[C@@H](OC(=O)N1Cc2c(NC(=O)c3ccc(C(F)(F)F)cc3)n[nH]c2C1(C)C)c1ccccc1` [Example 5]: in experiment [1], the midpoint of the response, the EC50, lay at 0.271 µM. In experiment [2], the Ki was determined as 0.0144 µM.

With `COc1ccc(CC(=O)Nc2n[nH]c3c2CN(C(=O)O[C@H](CN(C)C)c2ccccc2)C3(C)C)cc1` [Example 19, (1S)-2-(dimethylamino)-1-phenylethyl 3-{[(4-methoxyphenyl)acetyl]amino}-6,6-dimethyl-4,6-dihydropyrrolo [3,4-c]pyrazole-5(1H)-carboxylate], it took 0.0678 µM to reach a half-maximal effect in experiment [1] (EC50). In experiment [2], this molecule registered an inhibitory constant (Ki) of 0.00787 µM.

As for `CO[C@H](C)C(=O)Nc1n[nH]c2c1CN(C(=O)O[C@H](CN(C)C)c1ccccc1)C2(C)C` [Example 117, (S)-2-(dimethylamino)-1-phenylethyl 3-((R)-2-methoxypropanamido)-6,6-dimethylpyrrolo[3,4-c]pyrazole-5(1H,4H,6H)-carboxylate], in experiment [1], the EC50 was found to be 0.0088 µM. Further, the Ki in experiment [2] amounted to 0.357 µM.

Take `CN(C)CC(OC(=O)N1Cc2c(NC(=O)c3ccc(F)cc3)n[nH]c2C1(C)C)c1ccccc1F` (stereo not shown) [Example 38, 2-(dimethylamino)-1-(2-fluorophenyl)ethyl 3-[(4-fluorobenzoyl)amino]-6,6-dimethyl-4,6-dihydropyrrolo[3,4-c]pyrazole-5(1H)-carboxylate]: the EC50 in experiment [1] was 0.113 µM. Moreover, the affinity in experiment [2] corresponds to a Ki of 0.0432 µM.

Take `CN(C)C[C@@H](NC(=O)N1Cc2c(NC(=O)c3ccccn3)n[nH]c2C1(C)C)c1ccccc1` [Example 51, N-[(1S)-2-(dimethylamino)-1-phenylethyl]-6,6-dimethyl-3-[(pyridin-2-ylcarbonyl)amino]-4,6-dihydropyrrolo[3,4-c]pyrazole-5(1H)-carboxamide]: in experiment [1], the EC50 came out at 0.0203 µM. The Ki in experiment [2] amounted to 0.118 µM.

Take `C[C@@H](CN(C)C)OC(=O)N1Cc2c(NC(=O)c3ccccc3)n[nH]c2C1(C)C` [Example 73, (1S)-2-(dimethylamino)-1-methylethyl 3-(benzoylamino)-6,6-dimethyl-4,6-dihydropyrrolo [3,4-c]pyrazole-5(1H)-carboxylate]: in experiment [1], the EC50 was determined as 0.2 µM. The molecule also registered an inhibition constant (Ki) in experiment [2] of 0.354 µM.

In turn, `CN(C)C[C@@H](OC(=O)N1Cc2c(NC(=O)C3CCOC3)n[nH]c2C1(C)C)c1ccccc1` (stereo partly drawn) [Example 119, (S)-2-(dimethylamino)-1-phenylethyl 6,6-dimethyl-3-(tetrahydrofuran-3-carboxamido)pyrrolo[3,4-c]pyrazole-5(1H,4H,6H)-carboxylate] had an EC50 in experiment [1] of 0.052 µM. In addition, the Ki in experiment [2] came out at 0.26 µM.

Take `CN(C)C[C@@H](OC(=O)N1Cc2c(NC(=O)c3cccc4c3OCC4)n[nH]c2C1(C)C)c1ccccc1` [Example 81, (1S)-2-(dimethylamino)-1-phenylethyl 3-[(2,3-dihydro-1-benzofuran-7-ylcarbonyl)amino]-6,6-dimethyl-4,6-dihydropyrrolo[3,4-c]pyrazole-5(1H)-carboxylate]: in experiment [1], the EC50 is 0.104 µM. This molecule also displayed a Ki in experiment [2] of 0.24 µM.

As to `C[C@@H]([C@@H](OC(=O)N1Cc2c(NC(=O)c3ccc(F)cc3)n[nH]c2C1(C)C)c1ccccc1)N(C)C` [Example 45, (1S,2S)-2-(dimethylamino)-1-phenylpropyl 3-[(4-fluorobenzoyl)amino]-6,6-dimethyl-4,6-dihydropyrrolo[3,4-c]pyrazole-5(1H)-carboxylate], the EC50 in experiment [1] came out at 0.0211 µM. For the same molecule, the affinity in experiment [2] corresponds to a Ki of 0.318 µM.

In the case of `CN(C)C[C@@H](OC(=O)N1Cc2c(NC(=O)[C@H]3CCCO3)n[nH]c2C1(C)C)c1ccccc1` [Example 89, (S)-2-(dimethylamino)-1-phenylethyl 6,6-dimethyl-3-((R)-tetrahydrofuran-2-carboxamido)pyrrolo[3,4-c]pyrazole-5(1H,4H,6H)-carboxylate], in experiment [1], the EC50 came out at 0.01 µM. For the same molecule, the affinity in experiment [2] corresponds to a Ki of 0.156 µM.

In experiment [1], `CN(C)C[C@@H](OC(=O)N1Cc2c(NC(=O)c3cscn3)n[nH]c2C1(C)C)c1ccccc1` [Example 68, (1S)-2-(dimethylamino)-1-phenylethyl 6,6-dimethyl-3-[(1,3-thiazol-4-ylcarbonyl)amino]-4,6-dihydropyrrolo[3,4-c]pyrazole-5(1H)-carboxylate] registered an EC50 of 0.0341 µM. The molecule further showed a Ki in experiment [2] of 0.0482 µM.

`CC(C)C[C@@H](CN(C)C)OC(=O)N1Cc2c(NC(=O)C3CCC3)n[nH]c2C1(C)C` [Example 80, (S)-1-[(dimethylamino)methyl]-3-methylbutyl 3-[(cyclobutylcarbonyl)amino]-6,6-dimethyl-4,6-dihydropyrrolo[3,4-c]pyrazole-5(1H)-carboxylate]: the EC50 in experiment [1] came out at 0.012 µM. This molecule registered a Ki in experiment [2] of 0.756 µM.

`CN(C)CC(OC(=O)N1Cc2c(NC(=O)c3ccc(F)cc3)n[nH]c2C1(C)C)c1nccs1` (stereo not shown) [Example 93, 2-(dimethylamino)-1-(thiazol-2-yl)ethyl 3-(4-fluorobenzamido)-6,6-dimethylpyrrolo[3,4-c] pyrazole-5(1H,4H,6H)-carboxylate] yielded a half-maximal effective concentration (EC50) in experiment [1] of 0.178 µM. Further, the Ki in experiment [2] is 0.335 µM.

In turn, `CN(C)C[C@@H](OC(=O)N1Cc2c(NC(=O)c3ccc(C(F)(F)F)cc3)n[nH]c2C1(C)C)c1ccccn1` [Example 27, (1R)-2-(dimethylamino)-1-pyridin-2-ylethyl 6,6-dimethyl-3-{[4-(trifluoromethyl)benzoyl]amino}-4,6-dihydropyrrolo[3,4-c]pyrazole-5(1H)-carboxylate] had an EC50 in experiment [1] of 0.0799 µM. In experiment [2], this molecule displayed a Ki of 0.0821 µM.

In experiment [1], `CN(C)C[C@@H](NC(=O)N1Cc2c(NC(=O)c3ccc(F)cc3)n[nH]c2C1(C)C)c1ccccc1` [Example 47, N-[(1S)-2-(dimethylamino)-1-phenylethyl]-3-[(4-fluorobenzoyl)amino]-6,6-dimethyl-4,6-dihydropyrrolo[3,4-c]pyrazole-5(1H)-carboxamide] had an EC50 of 0.0347 µM. Moreover, the Ki in experiment [2] stood at 0.0542 µM.

Molecule `CN(C)CC(OC(=O)N1Cc2c(n[nH]c2NC(=O)C2CCCO2)C1(C)C)c1cccc(F)c1` (single isomer, unassigned) [Example 84B] displayed an EC50 in experiment [1] of 0.396 µM.

`CN(C)CC(OC(=O)N1Cc2c(n[nH]c2NC(=O)C2CCCO2)C1(C)C)c1cccc(F)c1` (single isomer, unassigned) [Example 83A] showed an EC50 in experiment [1] of 0.56 µM. The EC50 values of the last two molecules are within 1.5-fold of each other.

As to `CN(C)C[C@@H](NC(=O)N1Cc2c(NC(=O)c3cnccn3)n[nH]c2C1(C)C)c1ccccc1` [Example 111, (S)-N-(2-(dimethylamino)-1-phenylethyl)-6,6-dimethyl-3-(pyrazine-2-carboxamido)pyrrolo[3,4-c]pyrazole-5 (1H,4H,6H)-carboxamide], at 1 µM the inhibition in experiment [2] was 42%.

Consider `CC1(C)c2[nH]nc(NC(=O)Cc3ccc(F)cc3)c2CN1C(=O)N[C@@H]1C[C@H]1c1ccccc1` (relative stereo) [Example 70, 3-{[(4-fluorophenyl)acetyl]amino}-6,6-dimethyl-N-[trans-2-phenylcyclopropyl]-4,6-dihydropyrrolo[3,4-c]pyrazole-5(1H)-carboxamide], for which the Ki in experiment [2] came to 0.223 µM.

With `CC(C)C[C@@H](CN(C)C)OC(=O)N1Cc2c(NC(=O)c3ccccc3F)n[nH]c2C1(C)C` [Example 78, (1S)-1-[(dimethylamino)methyl]-3-methylbutyl 3-[(2-fluorobenzoyl)amino]-6,6-dimethyl-4,6-dihydropyrrolo[3,4-c]pyrazole-5(1H)-carboxylate], in experiment [2], the affinity, expressed as Ki, was 0.284 µM.

In experiment [2], `CC1(C)c2[nH]nc(NC(=O)c3ccccc3)c2CN1C(=O)NC1CCCN(Cc2ccccc2)C1` (stereo not shown) [Example 61, 3-(benzoylamino)-N-(1-benzylpiperidin-3-yl)-6,6-dimethyl-4,6-dihydropyrrolo[3,4-c]pyrazole-5(1H)-carboxamide] yielded a Ki of 0.444 µM.

Turning to `CC1(C)c2[nH]nc(NC(=O)C3CCC3)c2CN1C(=O)N[C@@H]1CCN(Cc2ccccc2)C1` [Example 65, N-[(3R)-1-benzylpyrrolidin-3-yl]-3-[(cyclobutylcarbonyl)amino]-6,6-dimethyl-4,6-dihydropyrrolo[3,4-c]pyrazole-5(1H)-carboxamide], the Ki in experiment [2] was found to be 0.849 µM.

The molecule `CN(C)CC(CC(=O)N1Cc2c(NC(=O)c3ccc(F)cc3)n[nH]c2C1(C)C)c1ccccc1` (stereo not shown) [Example 66, N-{5-[4-(dimethylamino)-3-phenylbutanoyl]-6,6-dimethyl-1,4,5,6-tetrahydropyrrolo[3,4-c]pyrazol-3-yl}-4-fluorobenzamide] had a Ki in experiment [2] of 0.556 µM. This Ki lies about 1.5-fold lower than the previous one.
